Measurements published in BindingDB's records for doi:10.1021/jm00396a006 (Upjohn, 1988).
Numbered stars: 1 amine (or outer) side, 2 acyl side, 3 side chain; on linkers, the order of the positions; unused ones are H or OH. Square brackets hold non-standard residues; d marks the D form. Peptide text beside a SMILES is read from it. * marks the point of attachment. ξ: configuration not given here. Sta(3ξ) = CC(C)C[C@H](N[*:1])C(O)CC(=O)[*:2]; X1 = CC(C)CC(N[*:1])C(O)CC(=O)[*:2]; For = O=C*

Biological target: Renin (Sus scrofa)
Test: In vitro inhibitory activity towards porcine kidney renin

| IC50 [µM] | SMILES |
| --- | --- |
| 0.12 | CC[C@H](C)[C@H](NC(=O)CC(O)[C@H](CC(C)C)NC(=O)[C@H](Cc1cnc[nH]1)NC(=O)[C@H](Cc1ccccc1)NC(=O)[C@@H]1CCCN1C(=O)[C@H](Cc1cn(C=O)c2ccccc12)NC(C)=O)C(N)=O (stereo partly drawn) [Ac-Ftr-Pro-Phe-His-Sta-Ile-NH2] |
| 0.0049 | CC(=O)N[C@@H](Cc1cn(C=O)c2ccccc12)C(=O)N1CCC[C@H]1C(=O)N[C@@H](Cc1ccccc1)C(=O)N[C@@H](Cc1cnc[nH]1)C(=O)NC(CC(C)C)C(O)CC(=O)N[C@H](C(=O)N[C@@H](Cc1cn(C=O)c2ccccc12)C(N)=O)C(C)C (stereo partly drawn) [Ac-Ftr-Pro-Phe-His-Sta-Val-Ftr-NH2] (Ac-W(For)PFH[X1]VW(For)-NH2) |
| 1.5 | CC[C@H](C)[C@H](NC(=O)CC(O)[C@H](CC(C)C)NC(=O)[C@H](Cc1cnc[nH]1)NC(=O)[C@H](Cc1ccccc1)NC(=O)[C@@H]1CCCN1C(=O)[C@H](Cc1cnc[nH]1)NC(C)=O)C(N)=O (stereo partly drawn) [Ac-His-Pro-Phe-His-Sta-Ile-NH2] (Ac-HPFH[Sta(3ξ)]I-NH2) |
